Our source for the solubility values is patent US8906904B2, “Alkoxy pyrazoles as soluble guanylate cyclase activators” (Boehringer Ingelheim International GmbH, priority 2012, dated 2014).

This series is described as follows: Assessment of solubility (McIlvaine buffers, 24 h shake, UPLC-UV). It is filed as physicochemical. The note with it: kinetic from dmso stock. The essentials:
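Compounds from 10 mM DMSO stocks were shaken for 24 h at room temperature in McIlvaine buffers at pH 2.2, 4.5 and 6.8 (2.5% v/v DMSO final), then filtered. Filtrates were quantified by UPLC-UV at 254 nm against a 50:50 acetonitrile/water reference assumed fully dissolved, as a single determination.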

SMILES strings stand for the structures. ≈ marks a conversion by molar mass, not a printed value.

Broadly, the solubility is how much of the substance goes into solution per volume. Low readings indicate little dissolved substance, high ones much dissolved substance.

As to `CCOc1c(C(=O)O)cnn1-c1cccc(-c2cccc(C)c2OCc2ccc3c(c2C)CCN([C@@H]2CCCOC2)C3)n1` [Compound 128], the solubility at 24 h came out at 93 µg/mL (≈ 160 µM) (pH 2.2, aqueous buffer); 77 µg/mL (≈ 132 µM) (pH 4.5, aqueous buffer); 78 µg/mL (≈ 134 µM) (pH 6.8, aqueous buffer).
In the case of `COc1c(C(=O)O)cnn1-c1cccc(-c2cccc(C)c2OCc2ccc3c(c2C)CCN(C2CCOCC2)C3=O)n1` [Compound 167, 5-Methoxy-1-(6-{3-methyl-2-[5-methyl-1-oxo-2-(tetrahydro-pyran-4-yl)-1,2,3,4-tetrahydro-isoquinolin-6-ylmethoxy]-phenyl}-pyridin-2-yl)-1H-pyrazole-4-carboxylic acid], the solubility at 24 h was 2.1 µg/mL (≈ 3.6 µM) (pH 2.2, aqueous buffer); 5.9 µg/mL (≈ 10.1 µM) (pH 4.5, aqueous buffer); 83 µg/mL (≈ 142 µM) (pH 6.8, aqueous buffer).
For `CCOc1c(C(=O)O)cnn1-c1cccc(-c2cccc(C)c2OCc2ccc3c(c2C)CCN([C@@H]2CCOC2)C3)n1` [Compound 126] the same measures were 96 µg/mL (≈ 169 µM), 74 µg/mL (≈ 130 µM) and 78 µg/mL (≈ 137 µM).
`CC[C@H](C)Oc1c(C(=O)O)cnn1-c1cccc(-c2cccc(C)c2OCc2ccc3c(c2C)CCN(C2CCCOC2)C3)n1` (stereo partly drawn) [Compound 135]: the solubility at 24 h by setting is: (pH 2.2, aqueous buffer) 110 µg/mL (≈ 180 µM); (pH 4.5, aqueous buffer) 97 µg/mL (≈ 159 µM); (pH 6.8, aqueous buffer) 100 µg/mL (≈ 164 µM).
On to `COc1c(C(=O)O)cnn1-c1cccc(-c2cccc(C)c2OCc2ccc3c(c2)C(C)(C)CN(C2COC2)C3)n1` [Compound 10], for which the solubility at 24 h turned out to be 94 µg/mL (≈ 169 µM) (pH 2.2, aqueous buffer); 50 µg/mL (≈ 90.1 µM) (pH 4.5, aqueous buffer); 73 µg/mL (≈ 132 µM) (pH 6.8, aqueous buffer).
For `CCOc1c(C(=O)O)cnn1-c1cccc(-c2cccc(C)c2OCc2ccc3c(c2F)CCN(C2CCOCC2)C3)n1` [Compound 159] the same measures were 86 µg/mL (≈ 147 µM), 55 µg/mL (≈ 93.8 µM) and 51 µg/mL (≈ 86.9 µM).
As for `CCOc1c(C(=O)O)cnn1-c1cccc(-c2cccc(C)c2OCc2ccc3c(c2CC)CCN(C2CCOCC2)C3)n1` [Compound 154], the solubility at 24 h is, setting by setting: (pH 2.2, aqueous buffer) 85 µg/mL (≈ 142 µM); (pH 4.5, aqueous buffer) 36 µg/mL (≈ 60.3 µM); (pH 6.8, aqueous buffer) 57 µg/mL (≈ 95.5 µM).
On to `COc1c(C(=O)O)cnn1-c1cccc(-c2cccc(C)c2OCc2ccc3c(c2)OCCN(C2CCOCC2)C3)n1` [Compound 130], for which the solubility at 24 h was 130 µg/mL (≈ 228 µM) (pH 2.2, aqueous buffer); 100 µg/mL (≈ 175 µM) (pH 4.5, aqueous buffer); 110 µg/mL (≈ 193 µM) (pH 6.8, aqueous buffer).
For `CCOc1c(C(=O)O)cnn1-c1cccc(-c2cccc(C)c2OCc2ccc3c(c2)CCN([C@@H]2CCOC2)C3)n1` [Compound 112] the same measures were 110 µg/mL (≈ 198 µM), 78 µg/mL (≈ 141 µM) and 94 µg/mL (≈ 169 µM).
Turning to `COc1c(C(=O)O)cnn1-c1cccc(-c2cccc(C)c2OCc2ccc3c(c2)CCN(CC2(C)COC2)C3)n1` [Compound 12], the solubility at 24 h turned out to be 110 µg/mL (≈ 198 µM) (pH 2.2, aqueous buffer); 90 µg/mL (≈ 162 µM) (pH 4.5, aqueous buffer); 92 µg/mL (≈ 166 µM) (pH 6.8, aqueous buffer).
For the compound `CCOc1c(C(=O)O)cnn1-c1cccc(-c2cccc(C)c2OCc2cc(C)c3c(c2)CCN(C2CCOCC2)C3)n1` [Compound 169], the solubility at 24 h is 120 µg/mL (≈ 206 µM) (pH 2.2, aqueous buffer); 100 µg/mL (≈ 172 µM) (pH 4.5, aqueous buffer); 97 µg/mL (≈ 166 µM) (pH 6.8, aqueous buffer).
For `COc1c(C(=O)O)cnn1-c1cccc(-c2cccc(C)c2OCc2ccc3c(c2C)CCN([C@@H]2CCCOC2)C3)n1` [Compound 140] the same measures were 140 µg/mL (≈ 246 µM), 120 µg/mL (≈ 211 µM) and 120 µg/mL (≈ 211 µM).
For `CCOc1c(C(=O)O)cnn1-c1cccc(-c2cccc(C)c2OCc2ccc3c(c2C)CCN(CC2CCOCC2)C3)n1` [Compound 172] the same measures were 110 µg/mL (≈ 184 µM), 87 µg/mL (≈ 146 µM) and 85 µg/mL (≈ 142 µM).
Consider `COc1c(C(=O)O)cnn1-c1cccc(-c2cccc(C)c2OCc2ccc3c(c2)CCN([C@H]2CC[C@]4(CCCO4)CC2)C3)n1` [Compound 102], for which the solubility at 24 h was determined as 99 µg/mL (≈ 163 µM) (pH 2.2, aqueous buffer); 81 µg/mL (≈ 133 µM) (pH 4.5, aqueous buffer); 82 µg/mL (≈ 135 µM) (pH 6.8, aqueous buffer).
For `COc1c(C(=O)O)cnn1-c1cccc(-c2cccc(C(F)(F)F)c2OCc2ccc3c(c2)CCN(C2COC2)C3)n1` [Compound 9] the same measures were 94 µg/mL (≈ 162 µM), 70 µg/mL (≈ 121 µM) and 82 µg/mL (≈ 141 µM).
Compound `COc1c(C(=O)O)cnn1-c1cccc(-c2cccc(C)c2OCc2cc3c(c(C(F)(F)F)c2)CN(C2CCOCC2)CC3)n1` [Compound 158] displayed a solubility at 24 h (pH 2.2, aqueous buffer) of 64 µg/mL (≈ 103 µM); a solubility at 24 h (pH 4.5, aqueous buffer) of 43 µg/mL (≈ 69.1 µM); a solubility at 24 h (pH 6.8, aqueous buffer) of 41 µg/mL (≈ 65.8 µM).
For `COCCOc1c(C(=O)O)cnn1-c1cccc(-c2cccc(C)c2OCc2ccc3c(c2C)CCN(C2CCCOC2)C3)n1` (stereo not drawn) [Compound 149] the same measures were 110 µg/mL (≈ 180 µM), 78 µg/mL (≈ 127 µM) and 81 µg/mL (≈ 132 µM).
